This is an account of results in ChEMBL document CHEMBL1201862, “PubChem BioAssay data set” (2004).

What all share (experiment): NCI anticancer screen, dose series, 48 h
Experiment [1] relates to SNB-75.
For experiment [2], the system named is SR.
Experiment [3] concerns PC-3.
Experiment [4] has as its system Hs-578T.
The test system of experiment [5] is HCT-116.
Experiment [6] deals with UACC-62.
Experiment [7] has as its system EKVX.
In experiment [8] the test system is HOP-62.
In experiment [9] the test system is 786-0.
For experiment [10], the system named is CCRF-CEM.
For experiment [11], the system named is UO-31.
In experiment [12] the test system is K562.
The test system of experiment [13] is MCF7.
The subject of experiment [14] is CAKI-1.
Experiment [15] relates to TK-10.
The subject of experiment [16] is NCI/ADR-RES.
The subject of experiment [17] is IGROV-1.
For experiment [18], the system named is HCT-15.
Experiment [19] concerns HT-29.
For experiment [20], the system named is Malme-3M.

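Growth conditions: 96-well plates. Treatment: test compound, 48 hours, 5 concentrations. Analysis: linear interpolation between bracketing concentrations; unreached endpoints set to highest concentration. GI50 is the concentration that inhibits growth by half.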 Activity calls are given as the source filed them. No stated cut-off is given here; in the data, active = GI50 up to about 1.1 µM and inactive = higher. Where only a bound is given, the exact number is not on record here.

Regarding `O=C1CCCc2cc3c(cc21)CCC3C(=O)O` (configuration not stated), the GI50 in [1], in [2], in experiment [3], in [4], in experiment [5] and in experiment [6] was > 100 µM (inactive) each time. In addition, the GI50 in experiment [7], in [8], in [9], in experiment [10], in [11] and in [12] was > 100 µM (inactive) in each case. In addition, the GI50 is > 100 µM (inactive) in [13]; > 100 µM (inactive) in experiment [14]; > 100 µM (inactive) in [15]; > 100 µM (inactive) in [16]; > 100 µM (inactive) in experiment [17]; more than 100 µM in experiment [18]. The GI50 in experiment [19] and in experiment [20] was > 100 µM (inactive) each time.
On to `COc1nc2c(c(=O)n1C)N[C@H]1[C@H](OC(C)=O)[C@@H](OC(C)=O)CO[C@H]1N2`, for which the GI50 in experiment [1], in [2], in [3], in experiment [4], in experiment [5] and in experiment [6] was > 100 µM (inactive) in each case. In addition, the GI50 was > 100 µM (inactive) in [7]; > 100 µM (inactive) in experiment [8]; > 100 µM (inactive) in experiment [9]; > 10 µM (inactive) in experiment [10]; > 100 µM (inactive) in experiment [11]; > 100 µM (inactive) in experiment [12]. Further, the GI50 in [13] was > 100 µM (inactive); in experiment [14] it was > 100 µM (inactive); in experiment [15] it was > 100 µM (inactive); in [16], > 100 µM (inactive); in experiment [17], > 100 µM (inactive); in experiment [18] it was more than 100 µM. Moreover, the GI50 in [19] and in [20] was > 100 µM (inactive) each time.
With `COC(=O)C1=C(C)NC(C)=C(C(=O)OC)C1c1ccc(NO)cc1`, the GI50 in experiment [1] is 13.2 µM (inactive); in [2] it was 2.47 µM (inactive); in [3], 13.4 µM (inactive); in experiment [4], 10.8 µM (inactive); in experiment [5], 7.59 µM (inactive); in [6], 13 µM (inactive). In addition, the GI50 in experiment [7] was 19.5 µM (inactive); in experiment [8], 14.6 µM (inactive); in experiment [9], 15.5 µM (inactive); in experiment [10], 0.897 µM (active); in experiment [11], 11.3 µM (inactive); in experiment [12], 1.86 µM (inactive). The GI50 in experiment [13] is 8.11 µM (inactive); in [14], 13 µM (inactive); in experiment [15], 16.5 µM (inactive); in experiment [16] it was 18.8 µM (inactive); in experiment [17] it was 16.3 µM (inactive); in experiment [18] it was 10.9 µM. Besides, the GI50 in [19] is 7.01 µM (inactive); in experiment [20] it was 13 µM (inactive).
As for `COc1cc(/C=C/C(=O)O)ccc1OS(=O)(=O)O`, the GI50 in [1], in [2], in experiment [3], in [4], in [5] and in [6] was > 100 µM (inactive) throughout. Further, the GI50 in experiment [7], in [8], in experiment [9], in [10], in [11] and in experiment [12] was > 100 µM (inactive) in each case. Besides, the GI50 is > 100 µM (inactive) in [13]; > 100 µM (inactive) in experiment [14]; > 100 µM (inactive) in experiment [15]; > 100 µM (inactive) in [16]; > 100 µM (inactive) in [17]; more than 100 µM in [18]. In addition, the GI50 in experiment [19] and in experiment [20] was > 100 µM (inactive) throughout.
For the compound `O=C(O)[C@H]1NC[C@H]2C(Br)=NO[C@@H]12`, the GI50 in [1], in experiment [2], in experiment [3], in [4], in experiment [5] and in [6] was > 100 µM (inactive) each time. For the same compound, the GI50 in experiment [7], in experiment [8], in experiment [9], in [10], in experiment [11] and in experiment [12] was > 100 µM (inactive) each time. Further, the GI50 in experiment [13] was > 100 µM (inactive); in [14], > 100 µM (inactive); in [15] it was > 100 µM (inactive); in experiment [16], > 100 µM (inactive); in [17] it was > 100 µM (inactive); in experiment [18], more than 100 µM. In addition, the GI50 in experiment [19] and in [20] was > 100 µM (inactive) in each case.
For the compound `O=C1CCCC1CN1CCCC1` (configuration not stated), the GI50 is 17.1 µM (inactive) in [1]; 0.194 µM (active) in experiment [2]; 18.9 µM (inactive) in [3]; 22.2 µM (inactive) in experiment [4]; 3.44 µM (inactive) in experiment [5]; 17.7 µM (inactive) in experiment [6]. Also, the GI50 in [7] was 18.1 µM (inactive); in experiment [8], > 67 µM (inactive); in experiment [9] it was 5.22 µM (inactive); in experiment [10], 0.207 µM (active); in [11], 7.31 µM (inactive); in experiment [12], 0.251 µM (active). For the same compound, the GI50 in [13] was 2.2 µM (inactive); in experiment [14], 0.348 µM (active); in [15], 12.5 µM (inactive); in [16], 15.7 µM (inactive); in experiment [17], 10.6 µM (inactive); in experiment [18], 2 µM. Also, the GI50 in experiment [19] is 23.2 µM (inactive); in experiment [20], 2.04 µM (inactive).
For the compound `Cc1nc(SCC(=O)Nc2ccccc2)c2sc(=S)n(-c3ccccc3)c2n1`, the GI50 in experiment [1] was 3.19 µM (inactive); in experiment [2], > 10 µM (inactive); in experiment [3], > 10 µM (inactive); in experiment [4] it was 4.25 µM (inactive); in experiment [5], > 10 µM (inactive); in experiment [6] it was > 10 µM (inactive). The GI50 in experiment [7] is > 10 µM (inactive); in [8], 8.71 µM (inactive); in experiment [9], 8.79 µM (inactive); in experiment [10], > 10 µM (inactive); in experiment [13], > 10 µM (inactive); in experiment [14], > 10 µM (inactive). Also, the GI50 in experiment [15] is > 10 µM (inactive); in experiment [16], > 10 µM (inactive); in experiment [17], > 10 µM (inactive); in experiment [18], more than 10 µM; in experiment [19], > 10 µM (inactive); in [20], > 10 µM (inactive).
For `CC1CC(C#N)=C2NCCCCN2C1=O` (configuration not stated), the GI50 in experiment [1], in [2], in [3], in [4], in experiment [6] and in experiment [7] was > 100 µM (inactive) each time. Besides, the GI50 in [8], in experiment [9], in experiment [10], in experiment [11], in experiment [12] and in experiment [13] was > 100 µM (inactive) each time. For the same compound, the GI50 in [14] is > 100 µM (inactive); in experiment [15], > 100 µM (inactive); in [16] it was > 100 µM (inactive); in [17], > 100 µM (inactive); in experiment [18], more than 100 µM; in [19], > 100 µM (inactive). For the same compound, the GI50 in experiment [20] was > 100 µM (inactive).
